Data: US20250034149A1, “DIHYDROPYRROLO[3,4C]-PYRAZOLE DERIVATIVES AND THEIR USE IN DIAGNOSIS” (AC IMMUNE SA, priority 2021, published 2025)
Structures can show the parent of a compound that is named as a salt.

Target: T1, PD brain-derived alpha-synuclein aggregates (Homo sapiens, UniProt P37840)
T1 construct: from tissue; host or cells: human PD donor brain tissue, sarkosyl-insoluble fraction
Assay: Micro-radiobinding competition assay for the determination of binding affinity
Settings: for Ki: compound concentrations 0.05 nM to 2 μM, nonlinear regression, one site model
Procedure: The procedure was adapted from the protocol described in Spillantini et al., 1998. Frozen tissue blocks from PD donors were thawed on ice and homogenized using a glass dounce homogenizer. The homogenate was then centrifuged at 11,000×g (12,700 RPM) in an ultracentrifuge (Beckman, XL100K) for 20 minutes at 4° C. using a pre-cooled 70.1 rotor (Beckman, 342184). Pellets were resuspended in extraction buffer [10 mM Tris —HCl PH 7.4, 10% sucrose, 0.85 mM NaCl, 1% protease inhibitor (Calbiochem 539131), 1 mM EGTA, 1% phosphatase inhibitor (Sigma P5726 and P0044)] and centrifuged at 15,000×g (14,800 RPM, a 70.1 Ti rotor) for 20 minutes at 4° C. Pellets were discarded and sarkosyl (20% stock solution, Sigma L7414) was added to the supernatants to a final concentration of 1% at room temperature for one hour. This solution was then centrifuged at 100,000×g (38,000 RPM, 70.1 Ti rotor) for one hour at 4° C. Pellets containing enriched alpha-synuclein aggregates were resuspended in PBS and stored at −80° C. until use.
PD brain-derived alpha-synuclein aggregates were spotted onto microarray slides. The slides were incubated with tritiated reference alpha-synuclein ligand at 6 nM, 20 nM or 30 nM and the example compounds (non-radiolabelled) at 1 μM and 100 nM. In some cases, the non-radiolabelled example compounds were further assessed for a range of different concentrations, varying from 0.05 nM to 2 μM. After incubation, slides were washed and scanned by a real-time autoradiography system (BeaQuant, ai4R). Quantification of the signal was performed by using the Beamage image analysis software (ai4R). Non-specific signal was determined with an excess of non-radiolabelled reference alpha-synuclein ligand (2 μM) and specific binding was calculated by subtracting the non-specific signal from the total signal. Competition was calculated as percent, where 0% was defined as the specific binding in the presence of vehicle and 100% as the values obtained in the presence of excess of the non-radiolabelled reference alpha-synuclein ligand. Ki values were calculated in GraphPad Prism7 by applying a nonlinear regression curve fit using a one site, specific binding model. All measurements were performed with at least two technical replicates. For compounds tested in more than one experiment, the mean of the replicates or Ki values in independent experiments is reported.
Results: Example compounds were assessed for their potency to compete with the binding of a tritiated reference alpha-synuclein ligand to PD patient brain-derived alpha-synuclein aggregates. Results of the micro-radiobinding competition assay for the example compounds tested are shown in Table 2 as: % competition at 1 μM and 100 nM.

[1] = 100 nM non-radiolabelled example compound, competition over tritiated reference alpha-synuclein ligand (6 nM, 20 nM or 30 nM)
[2] = 1 μM non-radiolabelled example compound, competition over tritiated reference alpha-synuclein ligand (6 nM, 20 nM or 30 nM)

## Cc1ccc(N2Cc3cn(-c4ccc(N5CCC(F)C5)nc4)nc3C2=O)cn1 (stereo in doubt) [Example 13, 2-{6-[(3S)-3-fluoropyrrolidin-1-yl]pyridin-3-yl}-5-(6-methylpyridin-3-yl)-2H,4H,5H,6H-pyrrolo[3,4-c]pyrazol-6-one hydrochloride]
[1]
  Micro-radiobinding competition assay Competition at 100 nM (%): 37%
1 μM non-radiolabelled example compound, competition over tritiated reference alpha-synuclein ligand (6 nM, 20 nM or 30 nM), hydrochloride
  Micro-radiobinding competition assay Competition at 1 μM (%): 87%

## O=C1c2nn(-c3ccc(N4CC[C@@H](F)C4)nc3)cc2CN1c1cccnc1 [Example 1, 2-{6-[(3R)-3-fluoropyrrolidin-1-yl]pyridin-3-yl}-5-(pyridin-3-yl)-2H,4H,5H,6H-pyrrolo[3,4-c]pyrazol-6-one]
[1]
  inhibition at 0.1 µM: 58%
[2]
  inhibition at 1 µM: 86%
  Ki: 84 nM

## O=C1c2nn(-c3ccc(N4CC[C@H](F)C4)nc3)cc2CN1c1cccnc1 [Example 2, 2-{6-[(3S)-3-fluoropyrrolidin-1-yl]pyridin-3-yl}-5-(pyridin-3-yl)-2H,4H,5H,6H-pyrrolo[3,4-c]pyrazol-6-one]
[1]
  inhibition at 0.1 µM: 34%
[2]
  inhibition at 1 µM: 80%
  Ki: 115 nM

## Cn1cc(N2Cc3cn(-c4ccc(N5CC(F)C5)nc4)nc3C2=O)cn1 [Example 3, 2-(6-(3-fluoroazetidin-1-yl)pyridin-3-yl)-5-(1-methyl-1H-pyrazol-4-yl)-4,5-dihydropyrrolo[3,4-c]pyrazol-6(2H)-one]
[1]
  inhibition at 0.1 µM: 38%
[2]
  inhibition at 1 µM: 89%
  Ki: 54 nM

## Cn1cc(N2Cc3cn(-c4ccc(N5CC[C@H](F)C5)nc4)nc3C2=O)cn1 [Example 4, 2-{6-[(3S)-3-fluoropyrrolidin-1-yl]pyridin-3-yl}-5-(1-methyl-1H-pyrazol-4-yl)-2H,4H,5H,6H-pyrrolo[3,4-c]pyrazol-6-one]
[1]
  inhibition at 0.1 µM: 28%
[2]
  inhibition at 1 µM: 75%

## Cn1cc(N2Cc3cn(-c4ccc(N5CC[C@@H](F)C5)nc4)nc3C2=O)cn1 [Example 5, 2-{6-[(3R)-3-fluoropyrrolidin-1-yl]pyridin-3-yl}-5-(1-methyl-1H-pyrazol-4-yl)-2H,4H,5H,6H-pyrrolo[3,4-c]pyrazol-6-one]
[1]
  inhibition at 0.1 µM: 74%
[2]
  inhibition at 1 µM: 101%

## COc1cncc(N2Cc3cn(-c4ccc(N5CC[C@H](F)C5)nc4)nc3C2=O)c1 [Example 6, 2-{6-[(3S)-3-fluoropyrrolidin-1-yl]pyridin-3-yl}-5-(5-methoxypyridin-3-yl)-2H,4H,5H,6H-pyrrolo[3,4-c]pyrazol-6-one]
[1]
  inhibition at 0.1 µM: 26%
[2]
  inhibition at 1 µM: 60%

## COc1cncc(N2Cc3cn(-c4ccc(N5CC[C@@H](F)C5)nc4)nc3C2=O)c1 [Example 7, 2-{6-[(3R)-3-fluoropyrrolidin-1-yl]pyridin-3-yl}-5-(5-methoxypyridin-3-yl)-2H,4H,5H,6H-pyrrolo[3,4-c]pyrazol-6-one]
[1]
  inhibition at 0.1 µM: 10%
[2]
  inhibition at 1 µM: 52%

## Cc1ccc(N2Cc3cn(-c4ccc(N5CC[C@@H](F)C5)nc4)nc3C2=O)cn1 [Example 8, 2-{6-[(3R)-3-fluoropyrrolidin-1-yl]pyridin-3-yl}-5-(6-methylpyridin-3-yl)-2H,4H,5H,6H-pyrrolo[3,4-c]pyrazol-6-one]
[1]
  inhibition at 0.1 µM: 37%
[2]
  inhibition at 1 µM: 71%
  Ki: 226 nM

## Cc1ccc(N2Cc3cn(-c4ccc(N5CC[C@H](F)C5)nc4)nc3C2=O)cn1 [Example 9, 2-{6-[(3S)-3-fluoropyrrolidin-1-yl]pyridin-3-yl}-5-(6-methylpyridin-3-yl)-2H,4H,5H,6H-pyrrolo[3,4-c]pyrazol-6-one]
[1]
  inhibition at 0.1 µM: 37%
[2]
  inhibition at 1 µM: 87%

## O=C1c2nn(-c3ccc(N4CC[C@@H](F)C4)nc3)nc2CN1c1cccnc1 [Example 10, 2-{6-[(3R)-3-fluoropyrrolidin-1-yl]pyridin-3-yl}-5-(pyridin-3-yl)-2H,4H,5H,6H-pyrrolo[3,4-d][1,2,3]triazol-4-one]
[1]
  inhibition at 0.1 µM: 74%
[2]
  inhibition at 1 µM: 97%
  Ki: 30 nM

## O=C1c2nn(-c3ccc(N4CC[C@H](F)C4)nc3)cc2CN1c1cncs1 [Example 11, 2-{6-[(3S)-3-fluoropyrrolidin-1-yl]pyridin-3-yl}-5-(1,3-thiazol-5-yl)-2H,4H,5H,6H-pyrrolo[3,4-c]pyrazol-6-one]
[1]
  inhibition at 0.1 µM: 41%
[2]
  inhibition at 1 µM: 90%

## O=C1c2nn(-c3ccc(N4CC[C@@H](F)C4)nc3)cc2CN1c1cncs1 [Example 12, 2-{6-[(3R)-3-fluoropyrrolidin-1-yl]pyridin-3-yl}-5-(1,3-thiazol-5-yl)-2H,4H,5H,6H-pyrrolo[3,4-c]pyrazol-6-one]
[1]
  inhibition at 0.1 µM: 64%
[2]
  inhibition at 1 µM: 94%
  Ki: 52 nM

## Cn1cc(N2Cc3cn(-c4ccc(N5CCCC(F)CC5)nc4)nc3C2=O)cn1 (centres unmarked) [Example 14, 2-(6-(4-fluoroazepan-1-yl)pyridin-3-yl)-5-(1-methyl-1H-pyrazol-4-yl)-4,5-dihydropyrrolo[3,4-c]pyrazol-6(2H)-one hydrochloride]
[1]
  inhibition at 0.1 µM: 0%
[2]
  inhibition at 1 µM: 66%

## Cc1ncc(N2Cc3cn(-c4ccc(N5CC[C@@H](F)C5)nc4)nc3C2=O)s1 [Example 15, (R)-2-(6-(3-fluoropyrrolidin-1-yl)pyridin-3-yl)-5-(2-methylthiazol-5-yl)-4,5-dihydropyrrolo[3,4-c]pyrazol-6(2H)-one]
[1]
  inhibition at 0.1 µM: 71%
[2]
  inhibition at 1 µM: 92%

## Cc1ncc(N2Cc3cn(-c4ccc(N5CC[C@H](F)C5)nc4)nc3C2=O)s1 [Example 16, (S)-2-(6-(3-fluoropyrrolidin-1-yl)pyridin-3-yl)-5-(2-methylthiazol-5-yl)-4,5-dihydropyrrolo[3,4-c]pyrazol-6(2H)-one]
[1]
  inhibition at 0.1 µM: 69%
[2]
  inhibition at 1 µM: 90%
  Ki: 40 nM

## O=C1c2nn(-c3ccc(OCCF)nc3)cc2CN1c1cccnc1 [Example 17, 2-(6-(2-fluoroethoxy)pyridin-3-yl)-5-(pyridin-3-yl)-4,5-dihydropyrrolo[3,4-c]pyrazol-6 (2H)-one]
[1]
  inhibition at 0.1 µM: 31%
[2]
  inhibition at 1 µM: 63%
  Ki: 214 nM

## Cn1cc(N2Cc3cn(-c4ccc(OCCF)nc4)nc3C2=O)cn1 [Example 18, 2-(6-(2-fluoroethoxy)pyridin-3-yl)-5-(1-methyl-1H-pyrazol-4-yl)-4,5-dihydropyrrolo[3,4-c]pyrazol-6(2H)-one]
[1]
  inhibition at 0.1 µM: 54%
[2]
  inhibition at 1 µM: 81%
  Ki: 78 nM

## O=C1c2nn(-c3ccc(OCCF)nc3)cc2CN1c1cncs1 [Example 19, 2-(6-(2-fluoroethoxy)pyridin-3-yl)-5-(thiazol-5-yl)-4,5-dihydropyrrolo [3,4-c]pyrazol-6(2H)-one]
[1]
  inhibition at 0.1 µM: 46%
[2]
  inhibition at 1 µM: 78%
  Ki: 86 nM

## Cc1ncc(N2Cc3cn(-c4ccc(OCCF)nc4)nc3C2=O)s1 [Example 20, 2-(6-(2-fluoroethoxy)pyridin-3-yl)-5-(2-methylthiazol-5-yl)-4,5-dihydro-pyrrolo[3,4-c]pyrazol-6(2H)-one]
[1]
  inhibition at 0.1 µM: 55%
[2]
  inhibition at 1 µM: 86%
